Results as given in PMC9249674, “A small-molecule Skp1 inhibitor elicits cell death by p53-dependent mechanism” (iScience, 2022).
Where two headings read alike, the source gives them in different places.

Legend:
[1] = test system: H358 cells; test: Caspase-Glo 3/7 activity; type: cell-based; settings: dose- and time-dependent treatment
Experimental: The activities of caspase-3/7, −8 and −9 were measured using Caspase-Glo® 3/7,8, and 9 assay kits (Promega, Madison, WI, USA) according to the manufacturer’s protocol. Briefly, the cells were plated over-night in a white 384 well microplate, and then treated as indicated with Z0933M. After treatment, 25 μL of each caspase substrate was added and incubated at room temperature for 30 min. Upon activation of caspase in the apoptotic cells, the substrate will give a luminescence signal after cleavage of the aminoluciferin-labelled synthetic tetrapeptide. Luminescent signals were detected using an EnSpire multimode plate reader (PerkinElmer). For inhibitor interventions and Skp1 overexpression, the experiments were performed in 96 well format.

[2] = biological target: T1, Skp1^WT (Homo sapiens, UniProt P63208); test: Thermal shift assay (TSA); type: binding; settings: protein 8 μM
T1 construct: recombinantly purify intact (Skp1^WT) and truncate (ΔSkp1^1−140; lacking H8-helix) forms of Skp1; His6; made in house; host or cells: Escherichia coli BL21 (DE3)
From the text: (§1) TSA, also known as differential scanning fluorimetry (DSF), is used to identify the contribution of a ligand binding to an unfolding protein as a function of temperature. The detection involves increase in fluorescence of a fluorophore SYPRO Orange (Invitrogen) upon binding to the hydrophobic regions of the gradually unfolded protein. A ligand stabilizing a protein may increase the melting temperature (Tm). To detect the binding of Z0933M with Skp1, a gradient TSA was used, in which, protein samples were mixed with appropriate concentrations of ligand over the range of several folds. The protein (Skp1^WT or ΔSkp1^1−140) was kept constant at 8 μM, and the compound concentration was varied from 50 μM to 600 μM. For comparison with 6-OAP, a single concentration of 400 μM was tested with both Skp1^WT and ΔSkp1^1−140. All reactions were set up in final volume of 10 μL in 96-well plate with 1x SYPRO Orange (Invitrogen) and incubated with compounds on ice for 30 min. According to the experimental protocol, samples were heated at 0.5°C per minute, ranging from 30 to 90°C, and the fluorescence intensity was measured at the interval of 0.5°C. Appropriate buffer blank and protein-only controls were kept, and the shift in Tm was measured as ΔTm = Tm (ligand-protein) ‒ (protein-only). The resultant ΔTm values were plotted by using GraphPad Prism® v6.0 (San Diego, CA) and ORIGIN Lab softwares.

[3] = biological target: T2, ΔSkp1^1−140 (Homo sapiens, UniProt P63208); test: Thermal shift assay (TSA); type: binding; settings: protein 8 μM
T2 construct: pETDuet-Skp1(1-140); His6; made in house; host or cells: Escherichia coli BL21 (DE3)
From the text: as §1

[4] = test system: A549 cells; test: Cell viability assay (Cell-Titer GLO); type: cell-based, human; settings: for EC50: Homo sapiens
Experimental: The media was according to culture conditions of each individual cell line (mentioned above). After 12 hrs, compounds were added in a total volume of 5 μL of media (two-fold diluted) to each well with final concentrations from 5 nM to 30 μM. The measurements were conducted 48 hrs after seeding of the cells. Then, 25 μL of Cell-Titer GLO reagent (Promega) was added, and luminescence was measured on an EnSpire multimode plate reader (PerkinElmer), according to the manufacturer’s instructions. The estimated in vitro half-maximal inhibitory concentration (EC50) values were calculated using GraphPad Prism® v6.0 (San Diego, CA) software. The cell viability for A549 cells was also performed for 72- and 96-hrs by using the same experimental conditions as described above.

[5] = biological target: T2, ΔSkp1^1−140; test: SPRi assay; type: binding
Experimental: Freshly deposited gold coated standard SPRi chips/slides (Plexera, LLC) were cleaned, and compound(s) at 10 mM concentration in 100% DMSO were spotted on the chips using a micropipette. After this, the slides were left for complete evaporation of DMSO (under vacuum) at room temperature for 2 hrs. […] The slides were subsequently washed with DMSO, ethanol, and finally with distilled water for 15 minutes (ultrasonically), respectively, to remove non-covalently bound compounds. After drying with nitrogen, the slides were assembled with flow cell and then mounted on SPRi instrument for measurement, or stored at 4°C to be used for later experiments.
All the experiments were carried out using the PlexArray® HT system (Plexera, LLC), which is based on surface plasmon resonance imaging. Oval regions of interests (ROIs) were set as 9 pixels × 7 pixels area in imaging area. ROIs of vehicle (DMSO) were used as controls for measurement of specific signals. […] A 1:3 mixture of glycine. HCL (pH 4.2) and 0.5% (v/v) SDS, respectively, was used to regenerate the surface and remove bound proteins from the small molecules enabling the sensor chip to be reused for additional analyte injections.
The Tris buffer (10 mM Tris-HCl pH 8.0, 100 mM NaCl), without any reducing agent, was used as both analyte and running buffer. […]

[6] = biological target: T3, Skp1 (F101A_F139A) (Homo sapiens, UniProt P63208, F101A/F139A); test: SPRi assay, Skp1 mutant; type: binding
T3 construct: His6; made in house; host or cells: Escherichia coli BL21 (DE3)
Experimental: (§2) Freshly deposited gold coated standard SPRi chips/slides (Plexera, LLC) were cleaned, and compound(s) at 10 mM concentration in 100% DMSO were spotted on the chips using a micropipette. After this, the slides were left for complete evaporation of DMSO (under vacuum) at room temperature for 2 hrs. After printing, the slides were exposed to UV irradiation 2.4 J/cm^2 (365 nm) in a UV chamber (Amersham life science). The slides were subsequently washed with DMSO, ethanol, and finally with distilled water for 15 minutes (ultrasonically), respectively, to remove non-covalently bound compounds. After drying with nitrogen, the slides were assembled with flow cell and then mounted on SPRi instrument for measurement, or stored at 4°C to be used for later experiments.
(§3) All the experiments were carried out using the PlexArray® HT system (Plexera, LLC), which is based on surface plasmon resonance imaging. Oval regions of interests (ROIs) were set as 9 pixels × 7 pixels area in imaging area. ROIs of vehicle (DMSO) were used as controls for measurement of specific signals. All samples were injected with an association and dissociation flow rate of 3 μL s^−1 and at 25°C. A 1:3 mixture of glycine. HCL (pH 4.2) and 0.5% (v/v) SDS, respectively, was used to regenerate the surface and remove bound proteins from the small molecules enabling the sensor chip to be reused for additional analyte injections.
The Tris buffer (10 mM Tris-HCl pH 8.0, 100 mM NaCl), without any reducing agent, was used as both analyte and running buffer. Purified recombinant proteins, including Skp1^WT, ΔSkp1^1−140, and any of the desired mutant(s), were in the Tris buffer (10 mM Tris-HCl pH 8.0, 100 mM NaCl). For testing the compound(s), multiple concentrations (0.5 μM, 1 μM, 4 μM and 8 μM) of Skp1^WT or ΔSkp1^1−140 were flowed on the SPRi instrument as analyte to get accurate kinetic parameters. A typical sample injection cycle consists of 300 seconds association phase with the analyte solution and 400 seconds dissociation phase with running buffer at 3 μL s^−1 flow rate. Other purified proteins such as mutant forms of Skp1 were tested to confirm binding pocket specificity. The highest concentration tested for each protein was 8 μM. For data analysis, we choose two software packages, ORIGIN Lab and Data Analysis Module (DAM) of Plexera. All data from SPRi reported here are after subtraction of the background intensity/signal by DAM software. In short, the entire concentration of analyte was fitted with a 1:1 Langmuir interaction integrated rate equation to obtain the kinetic constants.

[7] = biological target: T1, Skp1^WT; test: SPRi assay; type: binding
Experimental: as §2
as §3, with “injections. […]” for “injections.”

T2 sequence (P63208 1-140, stated change not applied): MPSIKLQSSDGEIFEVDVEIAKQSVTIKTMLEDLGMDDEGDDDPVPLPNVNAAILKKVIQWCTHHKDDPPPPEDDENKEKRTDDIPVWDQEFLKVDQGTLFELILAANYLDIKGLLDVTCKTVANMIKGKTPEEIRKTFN
T1 sequence (P63208 whole entry, the tested form may be a part): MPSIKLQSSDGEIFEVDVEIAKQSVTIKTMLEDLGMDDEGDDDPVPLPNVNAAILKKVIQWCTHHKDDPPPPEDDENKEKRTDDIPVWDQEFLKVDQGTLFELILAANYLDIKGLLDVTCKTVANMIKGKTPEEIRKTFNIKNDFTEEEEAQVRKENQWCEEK
T3 sequence (P63208 whole entry F101A/F139A): as the sequence (P63208 whole entry, the tested form may be a part) above, with F101A, F139A counted along it

Nc1ccc(-c2nc3ccccc3c3[nH]c4ccccc4c23)cc1 [Z0933M]
caspase 3/7 activity [1]: failed to do so
ΔTm at 50 µM ([2]; 50 μM compound): 0.3 °C
ΔTm at 100 µM ([2]; 100 μM compound): 0.6 °C
ΔTm at 200 µM ([2]; 200 μM compound): 2.4 °C
ΔTm at 400 µM ([2]; 400 μM compound): 7.8 °C
ΔTm at 600 µM ([2]; 600 μM compound): 10.5 °C
ΔTm at 50 µM ([3]; 50 μM compound): 0.9 °C
ΔTm at 100 µM ([3]; 100 μM compound): 0.6 °C
ΔTm at 200 µM ([3]; 200 μM compound): 2.1 °C
ΔTm at 400 µM ([3]; 400 μM compound): 10.8 °C
ΔTm at 600 µM ([3]; 600 μM compound): 11.1 °C
anti-proliferative potency relative to 6-OAP ([4]; A549 cells, 48 h, ratio of EC50 values): approximately 24 times
EC50 ([4]; A549, Lung cancer, 48 h, read-out: Anti-proliferative EC50): 580 ± 70 nM
EC50 ([4]; A549 cells, 72 hrs, read-out: EC50): 99 ± 1 nM
EC50 ([4]; A549 cells, 96 hrs, read-out: EC50): 66 ± 18 nM
Kd [5]: 40.4 ± 8.2 nM
Kd [6]: 799 ± 54.8 nM
Kd ([7]; SPRi, Skp1^WT): 54.7 ± 6.68 nM
Kd ([7]; as given in the summary): ~54 nM
